Among the test systems are DU-145; HCC 2998; HCT-15; HL-60; HOP-62; HOP-92; M14; MDA-MB-435; NCI-H226; NCI-H23; PC-3; RXF 393; SF-539; SN12C; SNB-19; T47D; TK-10; UO-31; NCI-H522.
Common to all, as to assay: NCI-60 cell line screen, 48 h

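48-hour exposure; five concentrations; linearly interpolated endpoints. Abbreviation: GI50, concentration required for 50% inhibition of growth.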 The source made the active and inactive calls. Rule as the data show it: active = GI50 up to about 1.1 µM and inactive = higher.

With `CCCC1=NC(C(F)(F)F)(C(F)(F)F)N=C(N2CCOCC2)O1`, the GI50 with DU-145 is > 100 µM (inactive); in the assay with HCC 2998, > 100 µM (inactive); in the assay with HCT-15 it was more than 100 µM; in the assay with HL-60, > 100 µM (inactive); with HOP-62 it was > 100 µM (inactive); with HOP-92, 25.3 µM (inactive). The GI50 with M14, with MDA-MB-435, with NCI-H226, with NCI-H23, with PC-3 and in the assay on RXF 393 was > 100 µM (inactive) in each case. For the same molecule, the GI50 with SF-539, in the assay on SN12C, in the assay on SNB-19, in the assay with T47D, in the assay on TK-10 and in the assay on UO-31 was > 100 µM (inactive) in each case.
`COc1cc(Nc2cnc3cc(F)c(F)cc3n2)cc(OC)c1`: the GI50 in the assay on DU-145 is > 100 µM (inactive); in the assay on HCT-15, more than 100 µM; in the assay on HL-60 it was > 100 µM (inactive); in the assay with HOP-62, 25.9 µM (inactive); in the assay on HOP-92 it was 25.8 µM (inactive); in the assay with M14 it was > 100 µM (inactive). For the same molecule, the GI50 in the assay with MDA-MB-435 was > 100 µM (inactive); with NCI-H226 it was > 100 µM (inactive); with NCI-H23, 20.8 µM (inactive); in the assay with NCI-H522, 11.4 µM (inactive); with PC-3 it was > 100 µM (inactive); in the assay on RXF 393, 12.2 µM (inactive). The GI50 in the assay with SF-539 was 71 µM (inactive); in the assay on SN12C, > 100 µM (inactive); in the assay on SNB-19, 26.2 µM (inactive); with T47D, > 100 µM (inactive); in the assay on TK-10, > 100 µM (inactive); in the assay with UO-31, > 100 µM (inactive).
Regarding `CN1CCc2c(sc3ncn(N)c(=N)c23)C1`, the GI50 in the assay on DU-145 is > 100 µM (inactive); in the assay with HCT-15 it was more than 100 µM; with HL-60 it was > 100 µM (inactive); in the assay with HOP-62, > 100 µM (inactive); with HOP-92, > 100 µM (inactive); in the assay with M14 it was > 100 µM (inactive). In addition, the GI50 with MDA-MB-435 was > 100 µM (inactive); in the assay on NCI-H226, 78.9 µM (inactive); in the assay with NCI-H23, > 100 µM (inactive); in the assay on NCI-H522 it was 45.7 µM (inactive); in the assay on PC-3 it was > 100 µM (inactive); in the assay on RXF 393 it was > 100 µM (inactive). Besides, the GI50 in the assay with SF-539, in the assay on SN12C, in the assay on SNB-19, in the assay with T47D and with TK-10 was > 100 µM (inactive) each time.
As to `O=c1cc(N2CCOCC2)n2c(ccc3ccccc32)n1`, the GI50 in the assay with HCC 2998 was > 100 µM (inactive); in the assay on HCT-15 it was more than 100 µM; with HL-60 it was > 100 µM (inactive); in the assay with HOP-62, > 100 µM (inactive); with HOP-92 it was > 100 µM (inactive); with M14, > 100 µM (inactive). In addition, the GI50 in the assay with MDA-MB-435, with NCI-H226, in the assay with NCI-H23, in the assay on NCI-H522, in the assay with PC-3 and with RXF 393 was > 100 µM (inactive) in each case. The GI50 in the assay with SF-539, in the assay on SN12C, in the assay on SNB-19, in the assay with T47D, in the assay on TK-10 and with UO-31 was > 100 µM (inactive) throughout.
In the case of `O=C1NC2CCCCC2NC1=C(C(=O)c1ccccc1)C(=O)c1ccccc1` (stereo not drawn), the GI50 with DU-145 was > 100 µM (inactive); in the assay with HCC 2998, 70.8 µM (inactive); with HCT-15, 23.3 µM; in the assay on HL-60 it was 46.7 µM (inactive); with HOP-62 it was 52.6 µM (inactive); in the assay with M14, 66.4 µM (inactive). Moreover, the GI50 in the assay with MDA-MB-435 was 46.6 µM (inactive); in the assay with NCI-H226, 12.5 µM (inactive); in the assay with NCI-H23, 22.4 µM (inactive); in the assay with NCI-H522, 18.9 µM (inactive); in the assay on PC-3 it was 53 µM (inactive); in the assay with RXF 393, > 100 µM (inactive). For the same molecule, the GI50 in the assay on SF-539 was 43.2 µM (inactive); with SN12C, 20.7 µM (inactive); with SNB-19, 65.9 µM (inactive); in the assay with T47D it was > 100 µM (inactive); in the assay on TK-10, 84.1 µM (inactive); in the assay with UO-31, 26.9 µM (inactive).
`CC(=O)OCC(C)C1=C(O)C(=O)C2(C)C/C=C(/C)CC/C=C(\C)CCC(O)C(C)CCC12` (stereo not drawn): the GI50 in the assay with DU-145 was 17.9 µM (inactive); in the assay on HCT-15 it was 17.6 µM; in the assay on HL-60, 17.5 µM (inactive); in the assay on HOP-62, 17 µM (inactive); in the assay on HOP-92, 18 µM (inactive); with M14 it was 17.8 µM (inactive). In addition, the GI50 with MDA-MB-435 was 17.5 µM (inactive); with NCI-H226, 17.6 µM (inactive); in the assay with NCI-H23, 17.8 µM (inactive); in the assay with NCI-H522, 17.3 µM (inactive); with PC-3, 15.3 µM (inactive); in the assay on RXF 393 it was 12.3 µM (inactive). Further, the GI50 was 16.3 µM (inactive) with SF-539; 19 µM (inactive) in the assay with SN12C; 18.4 µM (inactive) in the assay with SNB-19; 1.94 µM (inactive) with T47D; 19.6 µM (inactive) in the assay with TK-10; 14.2 µM (inactive) in the assay on UO-31.
`CCOC(=O)/C1=C(\C)N(c2ccc(C)cc2)C(=O)c2ccccc2C(=O)c2c(OC(C)=O)ccc(OC(C)=O)c21`: the GI50 was 31.8 µM (inactive) in the assay with DU-145; 16.4 µM in the assay on HCT-15; 20 µM (inactive) in the assay on HL-60; 18.5 µM (inactive) in the assay on HOP-62; 29.9 µM (inactive) in the assay on HOP-92; 18.4 µM (inactive) in the assay on M14. Further, the GI50 was 15.3 µM (inactive) with MDA-MB-435; 14.6 µM (inactive) with NCI-H226; 19.9 µM (inactive) in the assay on NCI-H23; 20.7 µM (inactive) in the assay with NCI-H522; 26.2 µM (inactive) in the assay with PC-3; 22.2 µM (inactive) with RXF 393. For the same molecule, the GI50 in the assay with SF-539 was 25.8 µM (inactive); with SN12C, 20.4 µM (inactive); with SNB-19, 25.2 µM (inactive); in the assay on T47D, 13.7 µM (inactive); in the assay with TK-10 it was 19.3 µM (inactive); in the assay on UO-31 it was 38.5 µM (inactive).
In the case of `NC(=S)N/N=C/c1c[nH]c2ccccc12`, the GI50 in the assay with DU-145 is > 100 µM (inactive); in the assay on HCT-15, more than 100 µM; in the assay on HL-60, 33.7 µM (inactive); in the assay on HOP-62, > 100 µM (inactive); in the assay with HOP-92, 21.6 µM (inactive); in the assay on M14 it was > 100 µM (inactive). For the same molecule, the GI50 in the assay on MDA-MB-435 is > 100 µM (inactive); in the assay on NCI-H226, > 100 µM (inactive); in the assay with NCI-H23, > 100 µM (inactive); with NCI-H522, 52.5 µM (inactive); with PC-3 it was > 100 µM (inactive); in the assay on RXF 393 it was > 100 µM (inactive). In addition, the GI50 was > 100 µM (inactive) in the assay with SF-539; > 100 µM (inactive) in the assay with SN12C; > 100 µM (inactive) with SNB-19; 99.3 µM (inactive) in the assay with T47D; > 100 µM (inactive) in the assay with TK-10; > 100 µM (inactive) with UO-31.
`COc1ccc(OCc2ccc3nc(-c4ccccc4)c(Cl)nc3c2)cc1`: the GI50 with DU-145 is > 100 µM (inactive); in the assay on HCC 2998, 27.7 µM (inactive); in the assay with HCT-15, 50.7 µM; in the assay with HL-60, 12.3 µM (inactive); in the assay with HOP-62 it was 14.2 µM (inactive); with HOP-92 it was 14.5 µM (inactive). Also, the GI50 in the assay with M14 is 33.9 µM (inactive); with MDA-MB-435, 50.6 µM (inactive); in the assay on NCI-H23, 19 µM (inactive); in the assay on NCI-H522, 10.7 µM (inactive); in the assay on PC-3, 40.9 µM (inactive); with SF-539, 12.9 µM (inactive). The GI50 in the assay with SN12C is 24.3 µM (inactive); in the assay with SNB-19, 26.5 µM (inactive); in the assay on T47D, 45 µM (inactive); in the assay with TK-10, 17.7 µM (inactive); in the assay with UO-31 it was 62.8 µM (inactive).
As for `CC(=O)OC1CC2c3cccc4c3C(CC2N(C)C1=O)CN4C(=O)c1ccccc1` (stereo not drawn), the GI50 with DU-145 was 16.6 µM (inactive); with HCC 2998 it was 15 µM (inactive); in the assay on HCT-15, 14.5 µM; in the assay on HL-60, 15.2 µM (inactive); with HOP-62, 23.2 µM (inactive); in the assay with HOP-92, 4.25 µM (inactive). In addition, the GI50 in the assay with M14 is 22.1 µM (inactive); with MDA-MB-435 it was 18.4 µM (inactive); with NCI-H226, 20.7 µM (inactive); in the assay on NCI-H23 it was 16.6 µM (inactive); with NCI-H522, 4.24 µM (inactive); with PC-3, 20.2 µM (inactive). Further, the GI50 is 25.8 µM (inactive) with SF-539; 18.8 µM (inactive) in the assay with SN12C; 30.3 µM (inactive) in the assay with SNB-19; 18.1 µM (inactive) with T47D; 29.8 µM (inactive) in the assay with TK-10; 16 µM (inactive) with UO-31.
As to `Cc1ccc(/N=N/c2c(O)c(C(=O)Nc3ccccc3)cc3ccccc23)c([N+](=O)[O-])c1`, the GI50 is > 100 µM (inactive) in the assay on DU-145; more than 100 µM in the assay on HCT-15; > 100 µM (inactive) in the assay with HOP-62; > 100 µM (inactive) in the assay on HOP-92; > 100 µM (inactive) in the assay on M14; > 100 µM (inactive) in the assay with MDA-MB-435. Besides, the GI50 in the assay on NCI-H23, with NCI-H522, in the assay with PC-3, with RXF 393, with SN12C and in the assay with SNB-19 was > 100 µM (inactive) throughout. The GI50 with T47D, with TK-10 and in the assay on UO-31 was > 100 µM (inactive) in each case.
Take `CC(C)(C)C1=CC(C)(n2[nH]c(=O)n(-c3ccccc3)c2=O)C=C(C(C)(C)C)C1=O`: the GI50 with DU-145 was > 100 µM (inactive); with HCC 2998, > 100 µM (inactive); in the assay on HCT-15, more than 100 µM; in the assay on HOP-92, > 100 µM (inactive); in the assay on MDA-MB-435, > 100 µM (inactive); in the assay on NCI-H226 it was > 100 µM (inactive). The GI50 in the assay on NCI-H23, with NCI-H522, with PC-3, in the assay with SF-539, in the assay on SN12C and with SNB-19 was > 100 µM (inactive) each time. For the same molecule, the GI50 is 59.6 µM (inactive) in the assay on T47D, > 100 µM (inactive) in the assay on TK-10 and 44.9 µM (inactive) in the assay with UO-31.

These data come from ChEMBL document CHEMBL1201862, “PubChem BioAssay data set” (2004).
